Data published in article PMC4780864, “Family-wide Structural Analysis of Human Numb-Associated Protein Kinases” (Structure(London, England:1993), 2016).

Tests used:
Experiment in all cases: biochemical
[1] = molecular target: T1, MPSK1 (Homo sapiens, UniProt O75716); parameters: Thermal shift assay (DSF, SYPRO Orange), 2 uM kinase domain, mean delta Tm of triplicates versus DMSO; settings: read-out: MPSK1
T1 construct: gene STK16; catalytic domain-containing construct
Protocol: (§1) All measurements were performed in triplicate and mean values were reported for all compounds (Table S1). […] However, NAKs are often omitted from selectivity panels, including commercial screens.

[2] = molecular target: T2, GAK (Homo sapiens, UniProt O14976); parameters: Thermal shift assay (DSF, SYPRO Orange), 2 uM kinase domain, mean delta Tm of triplicates versus DMSO; settings: read-out: GAK
T2 construct: catalytic domain-containing construct
T2 sequence (O14976 1-1311): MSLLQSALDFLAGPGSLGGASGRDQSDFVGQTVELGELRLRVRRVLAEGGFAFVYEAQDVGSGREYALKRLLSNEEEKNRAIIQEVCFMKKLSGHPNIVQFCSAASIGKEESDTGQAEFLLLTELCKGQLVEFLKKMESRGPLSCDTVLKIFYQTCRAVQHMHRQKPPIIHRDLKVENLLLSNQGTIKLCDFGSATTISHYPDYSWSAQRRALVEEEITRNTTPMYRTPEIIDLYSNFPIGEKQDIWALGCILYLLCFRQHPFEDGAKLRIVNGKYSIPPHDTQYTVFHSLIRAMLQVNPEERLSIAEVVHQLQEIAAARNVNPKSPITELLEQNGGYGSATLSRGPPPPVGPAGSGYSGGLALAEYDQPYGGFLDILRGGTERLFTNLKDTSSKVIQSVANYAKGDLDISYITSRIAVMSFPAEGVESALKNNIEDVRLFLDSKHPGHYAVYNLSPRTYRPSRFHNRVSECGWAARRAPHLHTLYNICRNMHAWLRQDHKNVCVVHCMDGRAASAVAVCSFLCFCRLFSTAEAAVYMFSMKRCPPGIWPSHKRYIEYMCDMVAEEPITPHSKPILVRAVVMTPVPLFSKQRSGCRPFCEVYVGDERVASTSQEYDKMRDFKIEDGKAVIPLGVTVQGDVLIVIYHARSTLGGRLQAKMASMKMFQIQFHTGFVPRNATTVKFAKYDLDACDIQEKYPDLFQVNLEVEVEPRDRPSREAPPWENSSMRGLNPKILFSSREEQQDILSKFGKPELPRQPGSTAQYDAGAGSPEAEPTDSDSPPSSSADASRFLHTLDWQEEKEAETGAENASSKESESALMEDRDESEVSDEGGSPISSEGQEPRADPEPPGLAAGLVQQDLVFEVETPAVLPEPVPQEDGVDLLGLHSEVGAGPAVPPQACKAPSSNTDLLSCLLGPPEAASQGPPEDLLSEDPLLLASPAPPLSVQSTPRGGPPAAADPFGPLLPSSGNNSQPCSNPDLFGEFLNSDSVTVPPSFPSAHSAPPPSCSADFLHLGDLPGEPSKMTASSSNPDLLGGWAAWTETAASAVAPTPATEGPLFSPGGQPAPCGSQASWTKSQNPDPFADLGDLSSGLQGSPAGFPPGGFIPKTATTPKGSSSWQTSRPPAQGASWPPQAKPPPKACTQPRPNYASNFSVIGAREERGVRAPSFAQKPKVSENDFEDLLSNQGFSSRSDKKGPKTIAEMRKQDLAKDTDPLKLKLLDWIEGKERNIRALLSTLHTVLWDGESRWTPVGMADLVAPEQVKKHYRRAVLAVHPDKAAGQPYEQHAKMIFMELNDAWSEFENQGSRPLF
Protocol: as §1

[3] = molecular target: T3, BIKE (Homo sapiens, UniProt Q9NSY1); parameters: Thermal shift assay (DSF, SYPRO Orange), 2 uM kinase domain, mean delta Tm of triplicates versus DMSO; settings: read-out: BIKE
T3 construct: gene BMP2K; catalytic domain-containing construct
Protocol: as §1

[4] = molecular target: AAK1 (Homo sapiens, UniProt Q2M2I8); parameters: kinase domain; Thermal shift assay (DSF, SYPRO Orange), 2 uM kinase domain, mean delta Tm of triplicates versus DMSO; settings: read-out: AAK1
Protocol: as §1

Sequence of AAK1 (Q2M2I8 27-365 limits assumed): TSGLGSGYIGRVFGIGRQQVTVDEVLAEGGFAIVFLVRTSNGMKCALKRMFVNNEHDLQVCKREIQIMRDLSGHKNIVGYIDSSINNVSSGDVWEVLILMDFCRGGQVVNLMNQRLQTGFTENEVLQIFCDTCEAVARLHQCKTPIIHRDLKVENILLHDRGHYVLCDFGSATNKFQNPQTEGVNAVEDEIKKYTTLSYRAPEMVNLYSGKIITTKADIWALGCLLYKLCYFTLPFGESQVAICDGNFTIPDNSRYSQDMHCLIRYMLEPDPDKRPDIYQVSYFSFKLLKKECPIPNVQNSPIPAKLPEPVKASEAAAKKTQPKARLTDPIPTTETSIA
T3 sequence (Q9NSY1 whole entry, the tested form may be a part): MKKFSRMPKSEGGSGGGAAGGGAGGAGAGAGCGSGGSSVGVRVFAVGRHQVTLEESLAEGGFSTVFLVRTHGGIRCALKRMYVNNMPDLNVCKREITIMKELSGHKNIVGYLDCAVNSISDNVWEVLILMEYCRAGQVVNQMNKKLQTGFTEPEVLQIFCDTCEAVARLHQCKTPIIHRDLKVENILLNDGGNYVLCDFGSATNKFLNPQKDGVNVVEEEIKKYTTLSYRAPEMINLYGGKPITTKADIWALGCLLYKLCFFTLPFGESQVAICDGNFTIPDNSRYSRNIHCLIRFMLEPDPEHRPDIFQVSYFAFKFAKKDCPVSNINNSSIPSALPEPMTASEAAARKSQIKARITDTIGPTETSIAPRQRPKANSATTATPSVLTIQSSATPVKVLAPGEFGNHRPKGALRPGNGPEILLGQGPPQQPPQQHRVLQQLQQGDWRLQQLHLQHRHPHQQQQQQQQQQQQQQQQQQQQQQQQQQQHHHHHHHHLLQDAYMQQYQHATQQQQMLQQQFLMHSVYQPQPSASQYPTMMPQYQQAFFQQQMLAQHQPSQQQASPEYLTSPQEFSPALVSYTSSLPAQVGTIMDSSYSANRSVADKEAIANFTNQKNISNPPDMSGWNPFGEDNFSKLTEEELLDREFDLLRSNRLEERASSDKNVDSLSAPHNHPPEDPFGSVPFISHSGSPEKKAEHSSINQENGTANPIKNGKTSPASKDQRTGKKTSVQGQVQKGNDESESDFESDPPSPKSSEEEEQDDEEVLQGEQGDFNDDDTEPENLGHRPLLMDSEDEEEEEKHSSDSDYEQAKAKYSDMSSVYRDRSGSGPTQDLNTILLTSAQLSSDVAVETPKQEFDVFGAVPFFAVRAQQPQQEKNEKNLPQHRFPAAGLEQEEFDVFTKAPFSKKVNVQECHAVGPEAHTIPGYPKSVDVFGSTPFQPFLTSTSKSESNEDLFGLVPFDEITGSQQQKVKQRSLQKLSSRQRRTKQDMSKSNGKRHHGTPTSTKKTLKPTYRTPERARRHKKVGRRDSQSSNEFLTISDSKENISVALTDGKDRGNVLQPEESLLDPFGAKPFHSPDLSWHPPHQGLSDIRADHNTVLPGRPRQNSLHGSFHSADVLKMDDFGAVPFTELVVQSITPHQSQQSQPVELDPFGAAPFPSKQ
T1 sequence (O75716 whole entry, the tested form may be a part): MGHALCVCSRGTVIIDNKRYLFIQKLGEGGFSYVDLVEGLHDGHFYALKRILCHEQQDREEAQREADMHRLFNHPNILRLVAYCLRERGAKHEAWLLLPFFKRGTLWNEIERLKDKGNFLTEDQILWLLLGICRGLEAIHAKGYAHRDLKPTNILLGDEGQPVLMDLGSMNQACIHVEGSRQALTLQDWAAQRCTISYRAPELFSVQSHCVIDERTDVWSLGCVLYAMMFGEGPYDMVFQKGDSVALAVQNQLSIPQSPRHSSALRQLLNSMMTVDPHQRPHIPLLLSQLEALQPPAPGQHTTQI

How did the ΔTm at 12.5 µM [1] turn out when `COc1cc(O)c2c(c1)/C=C/C[C@H](O)[C@H](O)C(=O)/C=C\C[C@H](C)OC2=O` [(5Z)-7-oxozeaenol, (3S,5Z,8S,9S,11E)-3,4,9,10-tetrahydro-8,9,16-trihydroxy-14-methoxy-3-methyl-1H-2-benzoxacyclotetradecin-1,7(8H)-dione] was run?
The ΔTm at 12.5 µM was 1.09 °C.

What about the ΔTm at 12.5 µM [2] of the same compound?
The ΔTm at 12.5 µM was 16.7 °C.

And the ΔTm at 12.5 µM [3]?
The ΔTm at 12.5 µM was 14 °C.

And the ΔTm at 12.5 µM [4]?
The ΔTm at 12.5 µM was 11.4 °C.

How did the ΔTm at 12.5 µM [1] turn out when `Clc1ccc(Nc2nnc(Cc3ccncc3)c3ccccc23)cc1` [Vatalanib] was run?
The ΔTm at 12.5 µM was 0.513 °C.

And the ΔTm at 12.5 µM [2]?
Its ΔTm at 12.5 µM is 0.0567 °C.

And the ΔTm at 12.5 µM [3]?
Its ΔTm at 12.5 µM is 0.423 °C.

And the ΔTm at 12.5 µM [4]?
The ΔTm at 12.5 µM was 0.303 °C.

For `Cc1cc(Nc2cc(CN3CCOCC3)c3nc(C)c(Cc4ccc(Cl)cc4F)n3n2)n[nH]1` [Gandotinib], which ΔTm at 12.5 µM [1] is on record?
The ΔTm at 12.5 µM was 9.07 °C.

And the ΔTm at 12.5 µM [2]?
The ΔTm at 12.5 µM was 0.333 °C.

And the ΔTm at 12.5 µM [3]?
The ΔTm at 12.5 µM was 10.2 °C.

And the ΔTm at 12.5 µM [4]?
Its ΔTm at 12.5 µM is 6.86 °C.

For `CO[C@@H]1[C@H](N(C)C(=O)c2ccccc2)C[C@H]2O[C@]1(C)n1c3ccccc3c3c4c(c5c6ccccc6n2c5c31)C(=O)NC4` [Midostaurin], which ΔTm at 12.5 µM [1] is on record?
Its ΔTm at 12.5 µM is 10.4 °C.

What about the ΔTm at 12.5 µM [2] of the same compound?
Its ΔTm at 12.5 µM is 6.33 °C.

And the ΔTm at 12.5 µM [3]?
The ΔTm at 12.5 µM was 14.9 °C.

What about the ΔTm at 12.5 µM [4] of the same compound?
Its ΔTm at 12.5 µM is 12.8 °C.

`CN1CCN(CCOc2cc(OC3CCOCC3)c3c(Nc4c(Cl)ccc5c4OCO5)ncnc3c2)CC1` [Saracatinib] was tested. Which ΔTm at 12.5 µM [1] did it give?
The ΔTm at 12.5 µM was 0.66 °C.

What about the ΔTm at 12.5 µM [2] of the same compound?
Its ΔTm at 12.5 µM is 7.95 °C.

What about the ΔTm at 12.5 µM [3] of the same compound?
The ΔTm at 12.5 µM was 4.59 °C.

And the ΔTm at 12.5 µM [4]?
The ΔTm at 12.5 µM was 0.31 °C.

`CC(C)(C)c1nc(-c2cccc(NS(=O)(=O)c3c(F)cccc3F)c2F)c(-c2ccnc(N)n2)s1` [Dabrafenib] was tested. Which ΔTm at 12.5 µM [1] did it give?
Its ΔTm at 12.5 µM is 4.06 °C.

And the ΔTm at 12.5 µM [2]?
Its ΔTm at 12.5 µM is 9.06 °C.

What about the ΔTm at 12.5 µM [3] of the same compound?
The ΔTm at 12.5 µM was 2.95 °C.

What about the ΔTm at 12.5 µM [4] of the same compound?
Its ΔTm at 12.5 µM is 2.23 °C.

What does the source list for `CC(C)n1nc(-c2ccc3oc(N)nc3c2)c2c(N)ncnc21` [INK128]?
ΔTm at 12.5 µM [1]: 1.64 °C; ΔTm at 12.5 µM [2]: 0.577 °C; ΔTm at 12.5 µM [3]: 0.41 °C; ΔTm at 12.5 µM [4]: 0.0667 °C

For `Cc1ccc(C(=O)Nc2ccc(CN3CCN(C)CC3)c(C(F)(F)F)c2)cc1C#Cc1cnc2cccnn12` [Ponatinib], which ΔTm at 12.5 µM [1] is on record?
The ΔTm at 12.5 µM was 2.24 °C.

And the ΔTm at 12.5 µM [2]?
Its ΔTm at 12.5 µM is 13 °C.

And the ΔTm at 12.5 µM [3]?
The ΔTm at 12.5 µM was 2.93 °C.

And the ΔTm at 12.5 µM [4]?
The ΔTm at 12.5 µM was 2.99 °C.

With `CN1CC[C@H](c2c(O)cc(O)c3c(=O)cc(-c4ccccc4Cl)oc23)[C@H](O)C1` [Alvocidib] as the compound, how does the ΔTm at 12.5 µM [1] read?
Its ΔTm at 12.5 µM is 1.55 °C.

What about the ΔTm at 12.5 µM [2] of the same compound?
Its ΔTm at 12.5 µM is 1.31 °C.

What about the ΔTm at 12.5 µM [3] of the same compound?
The ΔTm at 12.5 µM was 1.46 °C.

What about the ΔTm at 12.5 µM [4] of the same compound?
The ΔTm at 12.5 µM was 1.86 °C.

`COc1cc2c(N3CCN(C(=O)Nc4ccc(OC(C)C)cc4)CC3)ncnc2cc1OCCCN1CCCCC1` [Tandutinib] was tested. Which ΔTm at 12.5 µM [1] did it give?
Its ΔTm at 12.5 µM is 1.21 °C.

What about the ΔTm at 12.5 µM [2] of the same compound?
The ΔTm at 12.5 µM was 0.06 °C.

What about the ΔTm at 12.5 µM [3] of the same compound?
The ΔTm at 12.5 µM was 1.76 °C.

What about the ΔTm at 12.5 µM [4] of the same compound?
Its ΔTm at 12.5 µM is 0.57 °C.

For `C[C@@H](Oc1ccc2[nH]nc(/C=C/c3cnn(CCO)c3)c2c1)c1c(Cl)cncc1Cl` [LY2874455], which ΔTm at 12.5 µM [1] is on record?
The ΔTm at 12.5 µM was 10.3 °C.

What about the ΔTm at 12.5 µM [2] of the same compound?
Its ΔTm at 12.5 µM is 5.81 °C.

What about the ΔTm at 12.5 µM [3] of the same compound?
The ΔTm at 12.5 µM was 15.2 °C.

What about the ΔTm at 12.5 µM [4] of the same compound?
Its ΔTm at 12.5 µM is 11.6 °C.

Which results are given for `CC[C@H](Nc1ncnc2[nH]cnc12)c1nc2cccc(F)c2c(=O)n1-c1ccccc1` [Idelalisib]?
ΔTm at 12.5 µM [1]: 1.52 °C; ΔTm at 12.5 µM [2]: 1.01 °C; ΔTm at 12.5 µM [3]: 0.527 °C; ΔTm at 12.5 µM [4]: 0.29 °C

For `C[C@H](Nc1ncnc2nc[nH]c12)c1cc2cccc(Cl)c2c(=O)n1-c1ccccc1` [IPI-145], which ΔTm at 12.5 µM [1] is on record?
Its ΔTm at 12.5 µM is 0.847 °C.

And the ΔTm at 12.5 µM [2]?
Its ΔTm at 12.5 µM is -0.497 °C.

What about the ΔTm at 12.5 µM [3] of the same compound?
Its ΔTm at 12.5 µM is 0.24 °C.

What about the ΔTm at 12.5 µM [4] of the same compound?
Its ΔTm at 12.5 µM is 0.21 °C.

Which results are given for `COc1cc2nccc(Oc3ccc(NC(=O)Nc4cc(C)on4)c(Cl)c3)c2cc1OC` [Tivozanib]?
ΔTm at 12.5 µM [1]: 1.4 °C; ΔTm at 12.5 µM [2]: 6.98 °C; ΔTm at 12.5 µM [3]: 3.87 °C; ΔTm at 12.5 µM [4]: 3.15 °C

What does the source list for `CN[C@@H]1C[C@H]2O[C@@](C)([C@@H]1OC)n1c3ccccc3c3c4c(c5c6ccccc6n2c5c31)C(=O)N[C@H]4O` [UCN-01]?
ΔTm at 12.5 µM [1]: 4.49 °C; ΔTm at 12.5 µM [2]: 4.03 °C; ΔTm at 12.5 µM [3]: 13.1 °C; ΔTm at 12.5 µM [4]: 9.91 °C

What does the source list for `COC(=O)c1ccc2c(c1)NC(=O)/C2=C(\Nc1ccc(N(C)C(=O)CN2CCN(C)CC2)cc1)c1ccccc1` [nintedanib]?
ΔTm at 12.5 µM [1]: 6.33 °C; ΔTm at 12.5 µM [2]: 0.58 °C; ΔTm at 12.5 µM [3]: 7.61 °C; ΔTm at 12.5 µM [4]: 1.78 °C
